Data as given in patent US8378115B2, “Monomethine dyes” (Thermo Fisher Scientific (Milwaukee) LLC, priority 2007, dated 2013).

How the values were obtained:
λDNA = assay: Fluorescence enhancement of dye with λDNA; format: binding; conditions: for Fluorescence relative to TO / Fluorescence λ DNA/ssDNA: 0.8 μM dye, 3.2 μM DNA, one minute; for Ratio λ DNA/ss: fluorescence λ DNA vs ss-DNA; for Relative Fluorescent Intensity: λ DNA, TO = 1.0
Method: (§1) Stock solutions (8 mM) of each dye were prepared by dissolving each compound in dimethylsulfoxide (DMSO). Stock dye solutions were diluted to a desired concentration in tris-EDTA (TE) buffer (10 mM Tris, 1 mM EDTA, pH 8.0) immediately prior to use.
(§2) Stock solutions of λDNA and 40mer synthetic oligonucleotides (dsDNA and ssDNA), each at a concentration of 40 μM, were prepared in TE buffer. All DNA concentrations described are in base pairs of nucleotides. The DNA stock solutions were diluted to a desired concentration in TE buffer before being mixed with diluted dye solutions.
(§3) Fluorescence enhancement measurements of each dye were obtained by incubating dyes with λDNA, 40mer dsDNA, or 40mer ssDNA at a final concentration of 0.8 μM dye and 3.2 μM DNA for one minute. Fluorescence scans of the samples were performed with excitation wavelengths corresponding to the absorption maxima of the dyes. The resulting fluorescence intensities were compared to fluorescence intensities of Thiazole Orange (TO) and a compound equivalent to SYBR Green without the side chain (V02-06101), shown below,
(§4) [drawing 15] binding to λDNA, 40mer dsDNA, or 40mer ssDNA at a final concentration of 0.8 μM TO and 3.2 μM DNA for one minute, the same as for the tested dyes. The discrimination ratio between dsDNA and ssDNA was calculated by comparing the fluorescence intensities.

40mer dsDNA = assay: Fluorescence enhancement of dye with 40mer dsDNA; format: binding; conditions: for Relative Fluorescent Intensity: 40-mer ds-DNA, TO = 1.0; for Ratio ds/ss: fluorescence 40-mer ds-DNA vs ss-DNA
Method: as §1, §2, §3, §4

[1] = Absorption spectra of dye alone; format: physicochemical; conditions: for ε: in M-1·cm-1 (unit assumed)
Method: as §1
[…] […] Optical densities were determined at the absorbance maxima and the extinction coefficients were calculated using Beer's law.

rRNA = assay: Fluorescence of dye with rRNA; format: binding; conditions: for Ratio rRNA/ds: fluorescence rRNA vs 40-mer ds-DNA; for Ratio rRNA/ss: fluorescence rRNA vs 40-mer ss-DNA
RNA = assay: Low range RNA quantification by fluorescence; format: binding; conditions: low range RNA assay
Method: Detecting and quantifying small amounts of RNA is important in many determinations such as quantitating in vitro transcription yields and quantitating RNA concentration before performing RNA containing assays. RNA is typically quantitated by determining absorbance at 260 nm (λ260), but disadvantages include protein interference, DNA absorbance, and the need for high concentration of RNA (>4 μg/ml). More sensitive fluorescence methods must be used to quantitate small amounts of RNA. A widely used RNA quantitation dye is RiboGreen® (Invitrogen), where 1 ng/ml of RNA can be detected and quantitated with a standard fluorometer, fluorescence microplate reader, or filter fluorometer.
In one embodiment, the V11-03001 compound may be used to quantitate RNA.

[2] = tested on: 110 bp and 925 bp fragments from human β-actin gene, 309 bp fragment from human Survivin gene, 413 bp fragment from human integrin α5 gene; assay: qRT-PCR detection of longer PCR amplicons; format: biochemical; conditions: 20 ng to 60 ng dye; 110, 309, 413, 925 bp amplicons
Method: Compound V02-07027 was also used to detect the formation of longer PCR amplicons using qRT-PCR: The following by fragments were used: 110 bp and 925 bp fragments from human β-actin gene, a 309 bp fragment from human Survivin gene, and a 413 bp fragment from human integrin α5 gene. Real time PCR was performed on a Stratagene® MX3000 (Stratagene, La Jolla Calif.) instrument using an excitation wavelength of 492 nm and an emission wavelength of 516 nm. Each amplification reaction (25 μl) contained 10 ng or 100 ng of human Genomic DNA, 200 μM of each dNTP, 1.5 mM MgCl2, 50 mM KCL, 10 mM Tris-HCl, 400 nM of each of forward and reverse primers, and 2.5 units of Taq DNA polymerase (Thermo Fisher Scientific (Milwaukee Wis.)). Varying amounts of V02-07027 or a dye such as SYBR® Green (Invitrogen) were added to the reaction mix. Reactions were performed in triplicate and the data points represented the average signal.

Compound	Fluorescence relative to TO (λDNA)	Fluorescence λ DNA/ssDNA (λDNA)	Ratio λ DNA/ss (λDNA)	Relative Fluorescent Intensity (λDNA)	Relative Fluorescent Intensity (40mer dsDNA)	Ratio ds/ss (40mer dsDNA)	λex ([1]; Ethanol) [nm]	ε ([1]; Ethanol)	λex ([1]; TE Buffer, 8 μM dye) [nm]	ε ([1]; TE Buffer, 8 μM dye)	Ratio rRNA/ds (rRNA)	Ratio rRNA/ss (rRNA)	fluorescence enhancement among all the dyes studied (λDNA; comparable to SYBR Green dye)	fluorescence enhancement when bound with RNA (rRNA)	fluorescence intensities versus RiboGreen (RNA)	relationship between fluorescence intensity and total RNA concentration (RNA; FIG. 10)	binding to amplified DNA fragments [2]
CCN(CC)c1ccc2c(/C=C3\Sc4ccccc4N3CC)cc(-c3ccccc3)[o+]c2c1 [Dye V02-06187]	0.7	6.7	5.2	0.7	0.5	2.1	550	55,000	524	19,668							
CCCN(CCCN(C)C)C1=C/C(=C\c2sc3ccccc3[n+]2C)c2ccccc2N1c1ccccc1 [SYBR Green, reference compound]	10.6	8.3	8.3	10.6	15.0	7.5			494	73,000	0.3	1.0					
CCN(CC)c1ccc2c(/C=C3\Sc4ccccc4N3C)cc(N3CC[N+](C)(CCO)CC3)[o+]c2c1 [Dye V11-03001]			1.8	8.7	11.1	1.7	490	95,000	487	65,269	0.6	1.0	strongest fluorescence enhancement	significant fluorescence enhancement	comparable to those using RiboGreen®	linear relationship	
CCN(CC)c1ccc2c(/C=C3\Sc4ccccc4N3C)cc(N3CCN(CCO)CC3)[o+]c2c1 [Dye V13-01184]	5.3	6.1	2.0	5.3	6.1	1.4	480	83,000	455	40,321	1.0	1.4		significant fluorescence enhancement			
CCN(CC)c1ccc2c(c1)O/C(=C\c1cc(N(C)CCCN(C)C)[o+]c3cc(N(CC)CC)ccc13)C=C2C [Dye V13-01026]	0.9	1.4	1.4	0.9	1.0	0.7	585	48,000	543	25,013							
CCN(CCCN(C)C)c1ccc2c(/C=C3\Sc4ccccc4N3CC)cc(C(C)(C)C)[o+]c2c1 [Dye V02-07015]	4.0	3.7	3.7	4.0	4.0	2.3	522	50,000	515	37,365							
CCN1C(=Cc2cc(-c3ccccc3)[o+]c3cc(OC)ccc23)Sc2ccccc21 [Dye V02-06132]	None	None					488	43,000	480	18,850							
CN1C(=Cc2cc[n+](C)c3ccccc23)Sc2ccccc21 [TO, Thiazole Orange, reference compound]	1	3.3	5.6	1.0	1.0	3.5	501	77,000	501	52,773	0.8	2.3					
CCN(CC)c1ccc2c(C=C3Sc4ccccc4N3CC)cc(C(C)(C)C)[o+]c2c1 [Dye V02-06124]	0.5	1.6	1.6	0.5	0.3	1.2	530	85,000	515	46,625							
CCN(CC)c1ccc2c(/C=C3\Sc4ccccc4N3C)cc(N(C)CCC[N+](C)(C)C)[o+]c2c1 [Dye V11-02190]			3.1	1.9	1.7	1.9	481	25,600	477	16,940	0.7	1.4					
C[n+]1c(/C=C2\C=CN(c3ccccc3)c3ccccc32)sc2ccccc21 [Dye V02-06101, reference compound]	0.8	4.1															
CCN(CC)c1ccc2c(C=C3Oc4ccccc4N3CC)cc(C(C)(C)C)[o+]c2c1 [Dye V02-06136]	0.17	1	1	0.17	0.3	1.8	499	72,000	492	35,925							
CCN(CC)c1ccc2c(N(C)CCCN(C)C)cc(/C=C3\Sc4ccccc4N3C)[o+]c2c1 [Dye V02-07108]	3.1	1.8	1.9	3.1	3.5	1.4	498	46,000	496	27,418	0.8	1.1					
CCN1c2cc3[o+]c(N(C)CCCN(C)C)cc(/C=C4\Sc5ccccc5N4C)c3cc2C(C)=CC1(C)C [Dye V12-02144]	3.6	2.8	2.0	1.7	2.7	2.1	492	49,000	484	28,355	0.7	1.5					
CCN1C(=Cc2cc(-c3ccccc3)[o+]c3cc(OC)ccc23)Oc2ccccc21 [Dye V02-06135]	None	None					464	43,000									
CCN(CC)c1ccc2c(/C=C3\Sc4ccccc4N3C)cc(N(C)CCCN(C)C)[o+]c2c1 [Dye V02-07027]	3.6	2.8	2.8	3.6	5.3	2.6	477	60,000	475	39,987							bound to amplified DNA fragments, generating a fluorescent signal
